The test system of experiment [1] is M. abscessus subsp. abscessus M404. Put plainly: MIC assay in 96-well plate format. The experiment is classed as cell-based. Particulars: Mycobacteroides abscessus; M. abscessus subsp. abscessus M404, clinical isolate.
The test system of experiment [2] is M. abscessus subsp. massiliense M111. Description: MIC assay in 96-well plate format. The experiment is classed as cell-based. The note with it: Mycobacteroides abscessus; M. abscessus subsp. massiliense M111, clinical isolate.
Experiment [3] has as its system M. abscessus subsp. abscessus M337. Description: MIC assay in 96-well plate format. The note with it: Mycobacteroides abscessus; M. abscessus subsp. abscessus M337, clinical isolate. The experiment is classed as cell-based.
A further experiment concerns M. abscessus Bamboo. Put plainly: MIC and MBC determination in culture tubes (planktonic).

The results in this text go back to publication PMC8092876, “A Leucyl-tRNA Synthetase Inhibitor with Broad-Spectrum Antimycobacterial Activity” (Antimicrobial Agents and Chemotherapy, 2021).

SMILES strings stand for the structures. Converted amounts (≈) assume the structure as drawn.

Procedure for M. abscessus Bamboo: M. abscessus Bamboo culture was grown to mid-log-phase (OD600 = 0.4 to 0.6) and diluted to OD600 = 0.1 (1 × 10^7 CFU/ml). Aliquots of 1.2 ml of the resulting bacteria suspension were transferred into 14 ml vented, round-bottom tubes (Thermo Fisher 150268, Rochester, NY, United States). A 10-point 2-fold dilution series of the compound was prepared, starting at 100 times the desired highest concentration. The compound concentration range tested was 100 to 0.195 μM. For each drug concentration tested, 12 μl of drug stock was added to two tubes and vortexed. Aliquots of 12 μl of DMSO were added to two tubes as the untreated controls (1% final DMSO concentration). From each tube, 200 μl was transferred to wells on a 96-well plate and the OD600 was measured using a Tecan Infinite M200 plate reader (day 0 reading). The tubes (1 ml final volume) were incubated on a tilted rack at 37°C on an orbital shaker at 220 rpm. On day 2, tubes were vortexed before transferring 200 μl onto a 96-well plate to measure the OD600 again (day 2 reading). To determine the MIC, day 0 and day 2 OD600 values were analyzed as previously described for MIC determination in 96-well plate format. To determine the MBC, CFU measurement was done for the OD600 = 0.1 bacteria suspension on day 0 and for each tube on day 2. Specifically, serial 10-fold dilutions were prepared in phosphate-buffered saline (Thermo Fisher 10010023) containing 0.025% Tween 80 (PBS/Tween 80) and plated on 7H10 agar. The MBC was defined as the lowest concentration of drug that reduced the CFU/ml value by 10-fold relative to the day 0 CFU/ml value.

The term MIC denotes the lowest concentration found to suppress growth. Read a low MIC as inhibition by little substance. In general, MBC refers to the lowest tested concentration that kills the bacteria rather than only halting them. A higher MBC goes with weaker bactericidal potency. Consider `CC(C)(O)COc1ccc(Br)c2c1B(O)O[C@@H]2CN` [EC/11770], for which the MIC in experiment [1] is 0.52 µM (≈ 0.172 µg/mL); in experiment [2], 0.95 µM (≈ 0.313 µg/mL); in experiment [3], 0.5 µM (≈ 0.165 µg/mL); in the experiment with M. abscessus Bamboo (Mycobacteroides abscessus, 48 h), 3 µM (≈ 0.99 µg/mL); in the experiment with M. abscessus Bamboo (planktonic M. abscessus Bamboo in culture tubes, day 2) it was 3.0 µM (≈ 0.99 µg/mL). Further, the MBC against M. abscessus Bamboo (Mycobacteroides abscessus) was greater than 100 µM; against M. abscessus Bamboo (planktonic M. abscessus Bamboo in culture tubes, day 2, 10-fold CFU/ml reduction vs day 0) it was greater than 100 µM.
